# Test results published in article PMC6631349 (Xenobiotica; the fate of foreign compounds in biological …, 2014).
# Columns and labels:
# [1] = target: T1, UGT1A1 (Homo sapiens, UniProt P22309); assay: UGT1A1 supersomes-catalyzed 4-MU glucuronidation inhibition; conditions: 50 μM PC components; recombinant human UGT; mean of triplicate
# T1 sequence (P22309 26-533): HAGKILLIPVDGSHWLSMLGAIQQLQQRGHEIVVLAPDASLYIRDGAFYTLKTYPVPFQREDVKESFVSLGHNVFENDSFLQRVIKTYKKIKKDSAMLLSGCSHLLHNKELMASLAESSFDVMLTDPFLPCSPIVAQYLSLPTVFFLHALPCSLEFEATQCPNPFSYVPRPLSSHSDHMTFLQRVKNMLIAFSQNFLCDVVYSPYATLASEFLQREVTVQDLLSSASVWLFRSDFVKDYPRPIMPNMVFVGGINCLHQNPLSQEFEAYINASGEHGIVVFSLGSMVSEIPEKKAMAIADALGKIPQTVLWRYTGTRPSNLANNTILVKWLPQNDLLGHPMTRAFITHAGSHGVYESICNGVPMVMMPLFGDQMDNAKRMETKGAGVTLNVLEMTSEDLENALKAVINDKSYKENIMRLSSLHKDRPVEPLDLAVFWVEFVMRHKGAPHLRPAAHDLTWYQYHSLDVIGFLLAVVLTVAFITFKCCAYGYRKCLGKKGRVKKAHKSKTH
# [2] = target: T2, UGT1A7 (Homo sapiens, UniProt Q9HAW7); assay: UGT1A7 supersomes-catalyzed 4-MU glucuronidation inhibition; conditions: 50 μM PC components; recombinant human UGT; mean of triplicate
# T2 sequence (Q9HAW7 26-530): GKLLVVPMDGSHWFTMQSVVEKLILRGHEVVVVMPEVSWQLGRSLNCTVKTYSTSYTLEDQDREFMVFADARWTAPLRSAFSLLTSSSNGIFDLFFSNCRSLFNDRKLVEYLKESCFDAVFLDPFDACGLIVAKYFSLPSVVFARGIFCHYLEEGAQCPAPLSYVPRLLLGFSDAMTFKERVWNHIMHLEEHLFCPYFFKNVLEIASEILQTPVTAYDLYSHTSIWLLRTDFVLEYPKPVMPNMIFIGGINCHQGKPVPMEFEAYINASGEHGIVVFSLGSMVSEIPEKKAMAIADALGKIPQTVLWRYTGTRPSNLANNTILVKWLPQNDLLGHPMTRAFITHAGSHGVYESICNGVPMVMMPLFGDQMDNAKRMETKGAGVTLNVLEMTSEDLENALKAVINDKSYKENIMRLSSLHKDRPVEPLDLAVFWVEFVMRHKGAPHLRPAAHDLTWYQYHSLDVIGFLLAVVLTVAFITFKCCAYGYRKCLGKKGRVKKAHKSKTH
# [3] = target: T3, UGT2B4 (Homo sapiens, UniProt P06133); assay: UGT2B4 supersomes-catalyzed 4-MU glucuronidation inhibition; conditions: 50 μM PC components; recombinant human UGT; mean of triplicate
# T3 sequence (P06133 24-528): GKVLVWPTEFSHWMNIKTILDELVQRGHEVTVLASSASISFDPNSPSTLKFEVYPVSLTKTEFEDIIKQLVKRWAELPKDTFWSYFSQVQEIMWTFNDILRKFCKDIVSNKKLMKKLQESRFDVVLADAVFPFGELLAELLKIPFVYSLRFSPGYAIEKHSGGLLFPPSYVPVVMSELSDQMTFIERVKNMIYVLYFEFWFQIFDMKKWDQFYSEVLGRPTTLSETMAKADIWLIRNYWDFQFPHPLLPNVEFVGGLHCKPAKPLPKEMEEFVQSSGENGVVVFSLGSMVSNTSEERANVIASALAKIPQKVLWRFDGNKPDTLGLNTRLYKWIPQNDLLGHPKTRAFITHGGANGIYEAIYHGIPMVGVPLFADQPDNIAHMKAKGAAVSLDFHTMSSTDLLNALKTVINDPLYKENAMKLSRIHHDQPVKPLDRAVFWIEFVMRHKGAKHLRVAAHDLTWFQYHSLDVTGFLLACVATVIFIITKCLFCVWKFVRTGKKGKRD
# [4] = target: T4, UGT2B7 (Homo sapiens, UniProt P16662); assay: UGT2B7 supersomes-catalyzed 4-MU glucuronidation inhibition; conditions: for residual activity 2B7: 50 μM PC components, recombinant human UGT, mean of triplicate
# T4 sequence (P16662 24-529): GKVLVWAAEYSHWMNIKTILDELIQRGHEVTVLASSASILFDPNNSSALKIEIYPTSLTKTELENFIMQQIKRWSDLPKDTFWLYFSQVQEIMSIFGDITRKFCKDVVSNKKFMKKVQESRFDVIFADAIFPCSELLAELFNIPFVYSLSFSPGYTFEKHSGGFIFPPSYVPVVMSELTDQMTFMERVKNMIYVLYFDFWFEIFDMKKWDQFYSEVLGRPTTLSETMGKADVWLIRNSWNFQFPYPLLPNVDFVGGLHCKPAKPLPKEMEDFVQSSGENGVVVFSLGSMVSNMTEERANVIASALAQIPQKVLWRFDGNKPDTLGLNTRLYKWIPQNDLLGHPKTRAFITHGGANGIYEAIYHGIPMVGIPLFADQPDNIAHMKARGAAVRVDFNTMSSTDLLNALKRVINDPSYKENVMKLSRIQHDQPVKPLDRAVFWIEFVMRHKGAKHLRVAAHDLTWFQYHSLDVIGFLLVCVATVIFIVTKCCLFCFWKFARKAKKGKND
# [5] = target: T5, UGT1A6 (Homo sapiens, UniProt P19224); conditions: 50 μM PC components; recombinant human UGT; mean of triplicate
# T5 sequence (P19224 27-532): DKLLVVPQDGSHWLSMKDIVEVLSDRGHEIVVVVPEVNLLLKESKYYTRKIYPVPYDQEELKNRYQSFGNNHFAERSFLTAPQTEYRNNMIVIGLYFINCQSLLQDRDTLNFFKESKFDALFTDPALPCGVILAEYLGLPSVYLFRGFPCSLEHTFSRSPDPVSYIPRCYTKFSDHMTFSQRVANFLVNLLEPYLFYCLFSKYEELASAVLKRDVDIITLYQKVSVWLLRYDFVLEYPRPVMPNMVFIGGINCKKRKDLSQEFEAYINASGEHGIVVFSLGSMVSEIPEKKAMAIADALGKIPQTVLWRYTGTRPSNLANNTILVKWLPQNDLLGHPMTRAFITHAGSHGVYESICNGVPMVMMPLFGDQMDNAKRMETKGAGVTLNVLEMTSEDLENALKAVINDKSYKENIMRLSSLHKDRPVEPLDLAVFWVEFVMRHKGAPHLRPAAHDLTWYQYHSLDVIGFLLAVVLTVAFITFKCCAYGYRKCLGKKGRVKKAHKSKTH
Structure (SMILES),residual activity 1A1 [1] [%],residual activity 1A7 [2] [%],residual activity 2B4 [3] [%],residual activity 2B7 [4] [%],residual activity 1A6 [5] [%],inhibition percentage of UGT2B7 activity ([4]; 50 μM) [%]
"CCCCCCCCCCCCC(=O)OC[C@H](COP(=O)([O-])OCC[N+](C)(C)C)OC(=O)CCCCCCCCCCCC [PC 13:0, 13:0]",201.1,160.6,193.8,81.4,56.5,–
"CCCCCCCCCCCCCC(=O)OC[C@H](COP(=O)([O-])OCC[N+](C)(C)C)OC(=O)CCCCCCCCCCCCC [PC 14:0, 14:0]",208.9,162.3,179.0,66.1,54.3,–
"CCCCCCCCCCCCCCC(=O)OC[C@H](COP(=O)([O-])OCC[N+](C)(C)C)OC(=O)CCCCCCCCCCCCCC [PC 15:0, 15:0]",210.1,172.7,191.3,51.7,55.0,–
"CCCCCCCCCCCCCCCC(=O)OC[C@H](COP(=O)([O-])OCC[N+](C)(C)C)OC(=O)CCCCCCCCCCCCCCC [PC 16:0, 16:0]",192.6,155.2,185.1,60.3,53.7,–
"CCCCCCCCCCCCCCCCC(=O)OC[C@H](COP(=O)([O-])OCC[N+](C)(C)C)OC(=O)CCCCCCCCCCCCCCCC [PC 17:0, 17:0]",192.3,138.9,175.4,35.5,49.1,–
"CCCCCCCCCCCCCCCCCC(=O)OC[C@H](COP(=O)([O-])OCC[N+](C)(C)C)OC(=O)CCCCCCCCCCCCCCCCC [PC 18:0, 18:0]",208.2,139.9,93.4,36.0,50.7,–
"CC/C=C\C/C=C\C/C=C\C/C=C\C/C=C\C/C=C\CCC(=O)O[C@H](COC(=O)CCCCCCCCCCCCCCCCC)COP(=O)([O-])OCC[N+](C)(C)C [PC 18:0, 22:6, 1-stearoyl-2-docosahexaenoyl-sn-glycero-3-phosphocholine]",186.6,167.9,183.2,73.6,88.8,–
"CCCCCCCCCCCCCCCCCCC(=O)OC[C@H](COP(=O)([O-])OCC[N+](C)(C)C)OC(=O)CCCCCCCCCCCCCCCCCC [PC 19:0, 19:0]",184.9,135.5,83.4,23.1,49.1,76.9
"CCCCCCCCCCCCCCCCCCCC(=O)OC[C@H](COP(=O)([O-])OCC[N+](C)(C)C)OC(=O)CCCCCCCCCCCCCCCCCCC [PC 20:0, 20:0]",202.3,125.5,79.5,88.9,88.2,–
"CCCCCCCCCCCCCCCCCCCCC(=O)OC[C@H](COP(=O)([O-])OCC[N+](C)(C)C)OC(=O)CCCCCCCCCCCCCCCCCCCC [PC 21:0, 21:0]",185.2,122.0,80.3,26.2,85.4,–
"CCCCCCCCCCCCCCCCCCCCCC(=O)OC[C@H](COP(=O)([O-])OCC[N+](C)(C)C)OC(=O)CCCCCCCCCCCCCCCCCCCCC [PC 22:0, 22:0]",170.3,86.2,60.0,33.0,60.2,–
"CCCCCCCCCCCCCCCCCCCCCCC(=O)OC[C@H](COP(=O)([O-])OCC[N+](C)(C)C)OC(=O)CCCCCCCCCCCCCCCCCCCCCC [PC 23:0, 23:0]",133.7,118.8,168.3,69.5,98.9,–
